Data as given in ChEMBL document CHEMBL4043189, “Design, synthesis, and evaluation of substituted nicotinamide adenine dinucleotide (NAD+) synthetase inhibitors as potential antitubercular agents” (Bioorg Med Chem Lett, 2017).
≈ marks a conversion by molar mass, not a printed value.

Assays:
[1] = test system: Mycobacterium tuberculosis; assay: Antitubercular activity against Mycobacterium tuberculosis H37Rv incubated for 7 days under anaerobic condition measured by broth microdilution method; type: functional; settings: 168 h
[2] = Inhibition of recombinant Mycobacterium tuberculosis glutamine-dependent NadE using NAAD as substrate assessed as residual activity preincubated for 20 mins followed L-glutamine addition measured over 40 mins by spectrophotometric based PNP enzyme coupled assay
[3] = test system: Mycobacterium tuberculosis; assay: Antitubercular activity against NRP-2 stage of Mycobacterium tuberculosis H37Rv ATCC 27294 grown under glycerol free dubos broth after 7 days by microscopic analysis; type: functional; settings: H37Rv ATCC 27294, 168 h
[4] = test system: Mycobacterium tuberculosis; assay: Antitubercular activity against Mycobacterium tuberculosis H37Rv ATCC 27294 grown under Middlebrook 7H9 broth after 2 weeks by microscopic analysis; type: functional; settings: H37Rv ATCC 27294, 336 h
[5] = Inhibition of recombinant Mycobacterium tuberculosis NH3-dependent NadE using NAAD as substrate assessed as residual activity preincubated for 20 mins followed NH4Cl addition measured over 40 mins by spectrophotometric based PNP enzyme coupled assay
Bacillus anthracis = assay: Antibacterial activity against Bacillus anthracis Sterne spore forms measured every hour for 5 hrs by broth microdilution method; type: functional
[6] = Inhibition of Bacillus anthracis NadE using guanidine-HCl as substrate after 10 mins by HPLC analysis

Row | Structure (SMILES) | MIC [1] | IC50 [2] | MIC [3] | MIC [4] | IC50 [5] | MIC (Bacillus anthracis) | IC50 [6]
1 | COC(=O)c1cc2cc(OCc3ccccc3)ccc2n1CCCCCCCOC(=O)Cc1ccc([N+](C)(C)C)cc1 | 20 µM |  |  |  |  |  | 
2 | O=C(Nc1ccc([N+](=O)[O-])cc1)Nc1ccc(S(=O)(=O)Nc2ccc(I)cc2)cc1 |  | 370 µM | 50 µg/mL (≈ 92.9 µM) | 37 µg/mL (≈ 68.7 µM) |  |  | 
3 | COc1ccc(NS(=O)(=O)c2ccc(NC(=O)Nc3ccc([N+](=O)[O-])cc3)cc2)cc1 |  | 130 µM | 50 µg/mL (≈ 113 µM) | 25 µg/mL (≈ 56.5 µM) | > 200 µM |  | 
4 | O=C(Nc1ccc([N+](=O)[O-])cc1)Nc1ccc(S(=O)(=O)Nc2cccc(C(F)(F)F)c2)cc1 |  | 130 µM | 50 µg/mL (≈ 104 µM) | 37 µg/mL (≈ 77 µM) | > 200 µM |  | 
5 | O=C(Nc1ccc([N+](=O)[O-])cc1)Nc1ccc(S(=O)(=O)Nc2cccc([N+](=O)[O-])c2)cc1 |  | 170 µM | 12.5 µg/mL (≈ 27.3 µM) | 25 µg/mL (≈ 54.7 µM) |  |  | 
6 | O=C(Nc1ccc([N+](=O)[O-])cc1)Nc1ccc(S(=O)(=O)Nc2ccc([N+](=O)[O-])cc2)cc1 |  | 90 µM | 25 µg/mL (≈ 54.7 µM) | 37 µg/mL (≈ 80.9 µM) | > 200 µM |  | 
7 | O=C(Nc1ccc([N+](=O)[O-])cc1)Nc1ccc(S(=O)(=O)Nc2ccc(O)cc2)cc1 |  | 160 µM | 50 µg/mL (≈ 117 µM) | 37 µg/mL (≈ 86.4 µM) |  |  | 
8 | O=C(Nc1ccc([N+](=O)[O-])cc1)Nc1ccc(S(=O)(=O)Nc2ccc(Cl)cc2)cc1 |  | 520 µM | 37 µg/mL (≈ 82.8 µM) | 25 µg/mL (≈ 55.9 µM) |  |  | 
9 | O=C(Nc1ccc([N+](=O)[O-])cc1)Nc1ccc(S(=O)(=O)Nc2ccc(F)cc2)cc1 |  | 170 µM | 25 µg/mL (≈ 58.1 µM) | 19 µg/mL (≈ 44.1 µM) |  |  | 
10 | O=C(Nc1ccc([N+](=O)[O-])cc1)Nc1ccc(S(=O)(=O)Nc2ccc([N+](=O)[O-])c(C(F)(F)F)c2)cc1 |  | 190 µM | 50 µg/mL (≈ 95.2 µM) | 100 µg/mL (≈ 190 µM) |  |  | 
11 | N#Cc1ccc(NS(=O)(=O)c2ccc(NC(=O)Nc3ccc([N+](=O)[O-])cc3)cc2)cc1 |  | 190 µM | 37 µg/mL (≈ 84.6 µM) | 37 µg/mL (≈ 84.6 µM) |  |  | 
12 | NCc1ccc(S(=O)(=O)Nc2ccc(NC(=O)Nc3cccc([N+](=O)[O-])c3)cc2)cc1 |  |  |  |  |  | > 240 µM | 15.3 µM
13 | O=C(Nc1ccc([N+](=O)[O-])cc1)Nc1ccc(S(=O)(=O)Nc2ccccc2)cc1 |  | 125 µM | 12.5 µg/mL (≈ 30.3 µM) | 75 µg/mL (≈ 182 µM) | > 200 µM |  | 
14 | O=C(Nc1ccc([N+](=O)[O-])cc1)Nc1ccc(S(=O)(=O)Nc2ccc(Cl)c(Cl)c2)cc1 |  | 1000 µM | 50 µg/mL (≈ 104 µM) | 25 µg/mL (≈ 51.9 µM) |  |  | 6.4 µM
15 | NNC(=O)c1ccncc1 [ISONIAZID] |  |  | 0.03 µg/mL (≈ 0.219 µM) | 0.05 µg/mL (≈ 0.365 µM) |  |  | 
